Data set [1] relates to older patients with systolic hypertension and/or widened pulse pressure. Put plainly: Eplerenone versus amlodipine in systolic hypertension in older people, 24 weeks (Examples A-19, D-8). The format is in vivo, human. The text has this: At Week 10 or thereafter, if SBP is =170 mmHg on two consecutive visits, one to three days apart, and the patient is on the maximum dose of study drug, he/she must be withdrawn. Patients will receive double-blind study medication for a total of 24 weeks. Table A-19A illustrates the above-described dosing scheme.
Heart rate, BP, serum potassium levels, concomitant medications and adverse events will be assessed at each visit. […] Special studies: collagen markers [aminoterminal propeptide of type III procollagen (PIIINP), 7S domain of type IV collagen (7SIVC), and type I collagen telopeptide (ICTP)], plasma […] (PAI-1), tissue plasminogen activator (t-PA), microalbuminuria, and at selected sites, Ambulatory Blood Pressure Monitoring (ABPM) and arterial compliance will be done at Weeks 0, 14, and 24 or at Final Visit. Quality of Life Questionnaires will be done at visit 2A (beginning of single blind) and Weeks 0, 14, and 24 or at Final Visit. DNA genotyping will be performed at baseline.
In older patients, elevated systolic BP and wide pulse pressure predict cardiovascular risk better than diastolic BP. Reduced vascular compliance and intraglomerular hypertension typically accompany isolated systolic hypertension in older people.
Changes in arterial compliance, measured by pulse-wave velocity, microalbuminuria, and adverse effects (AEs) were assessed at baseline and after 24 weeks of therapy.

Another data set relates to hypertensive patients. Put plainly: Eplerenone vs. amlodipine, ambulatory blood pressure monitoring, 16 weeks (Example D-12). The format is in vivo, human. The conditions noted are these: in vivo. The text has this: This was a multicenter, randomized, double-blind, active-controlled, placebo run-in, parallel group study. […] If symptomatic hypotension occurred at Week 2 or Weeks 4, 6, 8, or 12 and the patient was on the lowest dose level (Dose Level 1), the patient was to be withdrawn. Study assessments at protocol-specified timepoints included BP, heart rate, ABPM, Holter recording, clinical laboratory analyses including serum potassium levels, concomitant medications. Throughout the study, safety was assessed by routine clinical laboratory analyses, vital signs, physical examinations, 12-lead ECG, and monitoring of adverse events.

Data set [2] relates to diabetic type 2 patients with hypertension and microalbuminuria. Put plainly: Eplerenone, enalapril and combination in diabetic hypertensives with microalbuminuria, 24 weeks (Examples A-18, D-7). The format is in vivo, human.
The subject of data set [3] is patients with hypertension and left ventricular hypertrophy. Put plainly: Eplerenone, enalapril and combination in left ventricular hypertrophy, 9 months (Examples A-15, D-4). The format is in vivo, human. The text has this: Table […] illustrates forth the above-described dosing scheme. […] Additional laboratory assessments of blood for clinical safety will be done monthly. Routine urinalysis will be done every three months. […] A blood sample for genotyping will be collected at Week 0. At screening and at Month 9, a 12-lead ECG and physical examination will be done. […] In case of early termination, an MRI and blood sample for TSH will be done for those patients who have received double-blind treatment for at least three months. At Weeks 0, 12 and Months 6 and 9, pharmacoeconomic data will be collected on all patients. The primary measure of efficacy is the change from baseline in LVM, as assessed by MRI, in the eplerenone group versus the enalapril group. […] Secondary measures of efficacy will be the following: […] (3) aortic compliance and ventricular filling parameters; and (4) special studies (PIIINP, microalbuminuria, PAI, and tPA). Additionally, the long-term safety and tolerability of the three treatment groups will be compared. […] The study design is illustrated in FIG. D-10. […] Left ventricular mass (LVM) (assayed by MRI), BP, collagen turnover, and tolerability were assessed at the 9-month endpoint.

Data set [4] concerns patients with mild-to-moderate hypertension. Put plainly: Eplerenone versus enalapril in essential hypertension, 12-month titration-to-effect (Example D-3). The format is in vivo, human. Here is the method:
The study design is illustrated in FIG. D-6. Patients with mild-to-moderate hypertension (diastolic blood pressure [DBP]≧95 mmHg and <110 mmHg) were randomized to receive initially EPL 50 mg QD (n=253) or ENAL 10 mg QD (n=246). If DBP ≧90 mmHg at Weeks 4, 8, 12, 16, or 20, the dose of study medication was up-titrated incrementally to EPL 100 mg and 200 mg QD, or ENAL 20 mg and 40 mg QD. […] At 24 wks and 12 months, changes in BP, RAAS hormone profile, urinary albumin excretion (urinary albumin: creatinine ratio [UACR]), laboratory tests, safety, and adverse events (AEs) were assessed.

Data set [5] relates to patients with mild to moderate hypertension. Put plainly: Eplerenone/HCTZ dose ranging factorial design study (Example D-2). The format is in vivo, human. The conditions noted are these: eplerenone 25, 50 or 200 mg daily; HCTZ 12.5 or 25 mg daily; 8 weeks. As to the method: Patients were assessed at weeks 0, 2, 4, and 8. Study assessments at protocol-specified timepoints included blood pressure (BP), heart rate, clinical laboratory analyses, vital signs, physical examinations, 12-lead ECG, and monitoring of adverse events. A total of 614 patients were randomized.

In data set [6] the test system is saline-loaded adrenalectomized rats treated with aldosterone. Put plainly: Subcutaneous vs. oral eplerenone in saline-loaded adrenalectomized rats treated with aldosterone (Example A-3). The conditions noted are these: Table A-3A. The format is in vivo. Here is the method: Urinary sodium, potassium and water excretion were measured. The results are expressed as the ratio of excreted urinary sodium to potassium (Na/K)±SEM.

For data set [7], the system named is uninephrectomized rats given 1% NaCl and aldosterone infusion. Put plainly: Volume expanded hypertensive rats, telemetry (Example A-4). The conditions noted are these: 24 h average after three weeks. The format is in vivo.
For data set [8], the system named is saline-loaded adrenalectomized rats treated with aldosterone. Put plainly: Antimineralocorticoid activity in saline-loaded adrenalectomized rats treated with aldosterone (Example A-2). The format is in vivo. As to the method: Methods: The antimineralocorticoid pharmacological activity was determined in saline-loaded adrenalectomized rats treated with aldosterone. […] Urinary sodium, potassium and water excretion were measured.

Data set [9] deals with saline-hydrated conscious dogs treated with aldosterone. Put plainly: Antimineralocorticoid action in saline-hydrated conscious dogs treated with aldosterone (Example A-2). The format is in vivo. The conditions noted are these: aldosterone i.v. infusion; antagonist 10 mg/kg orally.
Setting [10] is: after 24 weeks, titration-to-effect.
Where [11] appears, read: 9-month endpoint, forced titration.
Where [12] appears, read: 9-month endpoint, EPL 200 mg, ENAL 40 mg, EPL 200 mg/ENAL 10 mg.
[13] abbreviates: Week 24, EPL 50-200 mg QD, ENAL 10-40 mg QD titrated.

Turning to `CCOC(=O)C1=C(COCCN)NC(C)=C(C(=O)OC)C1c1ccccc1Cl` (stereo not drawn) [Amlodipine, reference compound], in data set [1] (24-week study), the “Edema rates (%)” value was 25.2%. For the same compound, in data set [1] (24 weeks), the peripheral edema frequency was determined as 25.2%; the “reduction in pulse pressure” value is recorded as −13.4 mmHg; the “symptoms with significant and clinically meaningful worsening in distress from Baseline (QoL)” value is on record as 21 symptoms. For the same compound, the “reduction in SBP” value in data set [1] (24 weeks, EPL 50-200 mg QD, AML 2.5-10 mg QD) is given as −20.1 mmHg. For the same compound, in data set [1] (setting [10]), the “Pulse Pressure (change)” value is listed as −13.4 ± 0.95 mmHg and the “Systolic BP (change)” value was −20.1 ± 1.13 mmHg. Further, the safety and tolerability entry in data set [1] (in vivo) is “safe and well tolerated”. The “Δ microalbuminuria (%)” value in data set [1] (only for patients with baseline microalbuminuria (>30 mg/g), 24 weeks) was −10.4%. In addition, in data set [1] (patients with baseline microalbuminuria (>30 mg/g)), the “reduction in UACR” value is −3.3%. For the same compound, in the data set on hypertensive patients, the “incidence of peripheral edema” value is listed as “greater incidence of peripheral edema”; the safety and tolerability entry is “safe and well tolerated”.
On to `CCOC(=O)[C@H](CCc1ccccc1)N[C@@H](C)C(=O)N1CCC[C@H]1C(=O)O` [Enalapril, reference compound], for which, in data set [2] (24 weeks), the “patients withdrawn for hyperkalemia” value turned out to be 2 patients and the “subjects with elevated K+ (≧6.0 mEq/L)” value is given as 2 subjects. The “patients requiring addition of hydrochlorothiazide (HCTZ)” value in [2] (EPL 200 mg QD, ENAL 40 mg QD, EPL 200 mg/ENAL 10 mg, 24 weeks) was 43/81. Moreover, in [2] (Week 8), the “Adjusted mean change ΔDBP (Week 8-baseline)” value is −11.6 and the “Adjusted mean change ΔSBP (Week 8-baseline)” value is −15.4. In data set [2] (Week 24), the “Adjusted mean change ΔDBP (Week 24-baseline)” value is given as −15.0 and the “Adjusted mean change ΔSBP (Week 24-baseline)” value is given as −20.4. For the same compound, the tolerability entry in data set [2] (in vivo) is reported as “well tolerated”. For the same compound, in data set [3] (setting [11]), the “DBP Adjusted mean change” value was −13.0 mmHg and the “SBP Adjusted mean change” value was −22.5 mmHg. In [3] (setting [12]), the “decrease from baseline in UACR” value is −39.1% and the “decrease from baseline in collagen turnover” value is −7.3%. Besides, in data set [3] (9-month study), the patients experiencing coughing is reported as 14.1%. In data set [3] (left ventricular mass by MRI, 9-month endpoint, forced titration (EPL 50-200 mg, ENAL 10-40 mg)), the “LVM Adjusted mean change [g (SE)]” value was −19.7 (3.20) g. Also, in data set [4] (12-month study), the patients experiencing coughing came to 6.5%, the patients experiencing hyperglycemia is on record as 2.8% and the “patients experiencing urinary tract infections (UTI)” value is on record as 2.8%. For the same compound, in data set [4] (12 months), the DBP change is reported as −14.1 mmHg and the SBP change is −14.8 mmHg. In [4] (setting [13]), this compound registered a DBP change of −11.3 mmHg and an SBP change of −12.7 mmHg. Besides, the “reduction in UACR” value in data set [4] (Week 24, patients with baseline UACR ≧30 mg/g) is given as −25.7%. In [4] (in vivo), the safety and tolerability entry is “safe and well tolerated”.
`NS(=O)(=O)c1cc2c(cc1Cl)NCNS2(=O)=O` [HCTZ, reference compound]: in data set [5], the “DBP, change from Baseline to the Final Visit” value is on record as “dose-dependent decreases in DBP” and the “SBP, change from Baseline to the Final Visit” value is given as “dose-dependent decreases in SBP”.
As for `CC(=O)S[C@@H]1CC2=CC(=O)CC[C@]2(C)[C@H]2CC[C@@]3(C)[C@@H](CC[C@@]34CCC(=O)O4)[C@H]12` [Spironolactone], the “Mean Na/K” value in [6] (aldosterone + antagonist 10 mg/100 g rat) was found to be 1.56; in data set [6] (aldosterone + antagonist 30 mg/100 g rat) it was 3.02; in data set [6] (aldosterone + antagonist 100 mg/100 g rat) it was 4.02. Besides, the “HR: Heart Rate” value is listed as 338 ± 4 beats/min in data set [7] (aldosterone & antagonist 100 mg/kg s.c.) and 336 ± 7 beats/min in [7] (aldosterone & antagonist 200 mg/kg s.c.). The “Urinary Na/K ± SEM” value in [8] (aldosterone & antagonist 1 mg/kg by gavage) stood at 2.26 ± 0.25; in data set [8] (aldosterone & antagonist 3 mg/kg by gavage), 2.90 ± 0.25; in [8] (aldosterone & antagonist 10 mg/kg by gavage) it was 4.38 ± 0.26. Besides, in data set [9], the “Na/K Ratio” value was found to be 1.7. Moreover, the “Urinary Excretion Potassium” value in data set [9] stood at 7.4 ± 0.7 mmol/2 h. Further, the “Urinary Excretion Sodium” value in data set [9] was determined as 12.6 ± 2 mmol/2 h.

For the origin of these results see patent US20070191324A1, “Methods for treatment or prophylaxis of aldosterone-mediated pathogenic effects in a subject using an epoxy-steroidal aldosterone antagonist” (priority 1999, published 2007).
